From article PMC10318456, “Selective inhibitors of the PSEN1–gamma-secretase complex” (The Journal of Biological Chemistry, 2023) come the findings set out here.

Values joined by “and” are separate entries in the source; they are usually repeats but may differ in a detail not shown here. Identical values can stand only once.

In experiment [1] the test system is PSEN1 versus PSEN2 γ-secretase complexes. Kind of experiment: Comparison of the four MEF cell lines: selectivity between γ-secretase complexes (IC50 ratios). It is filed as cell-based, human. The text has this: Mouse embryonic fibroblast (MEF) cells deficient for the Psen and Aph1 genes (Psen1/2^−/−, Aph1ABC^−/−) were reconstituted with human PSEN1 or PSEN2 and with human APH1A or APH1B to generate four independent cell lines, each constitutively expressing exclusively one type of γ-secretase complex (Fig. S1A) ([19]). A human APP-C99-GFP reporter was introduced to enable the measurement of Aβ peptides in the conditioned media of the cells to monitor γ-secretase activity. The assay was established in a 96-well format.
GraphPad Prism 7 software was used to generate inhibition fitting curves (four-parameter logistic equation, nonlinear regression) and to determine IC50 and 95% CI values (Fig. S2). Selectivity values (IC50 ratios of PSEN1 versus PSEN2) above 10 are highlighted in red.
(§1) The number of plated cells and incubation times were determined in respect to linearity of Aβ peptide secretion, the dynamic range of Aβ peptide quantification in the medium, and sensitivity to dimethylsulfoxide (DMSO). […] MEF cells were plated in DMEM F12 supplemented with 10% FCS at 10,000 cells per well in 96-well clear bottom plates in the late afternoon and cultured for 16 h at 37 °C, 5% CO2. In the morning of the second day, the medium was replaced with 60 μl of DMEM/F12 supplemented with 2% FCS, and GSI or DMSO (controls) were added. Compounds were tested in serial dilutions with concentrations ranging from […] to 0.1 nM with 3-fold changes. The final concentration of DMSO in all wells was 0.2%. Plates were put in the incubator again at 37 °C, 5% CO2. After 8 h, the culture media were collected, and 30 μl was used to measure Aβ40 peptides. The cell viability was assessed using the CellTiter-Glo Luminescent assay (Promega) that measures ATP production. All screens were performed at one site, and reported IC50 values throughout the manuscript are from this site (Beerse) unless otherwise indicated.
GraphPad Prism 7 software (https://www.graphpad.com) was used to generate inhibition fitting curves (four-parameter logistic equation, nonlinear regression) and to determine IC50 values and 95% CI.

In experiment [2] the target is T1, PSEN1 WT–APH1A γ-secretase complex (Homo sapiens, UniProt P49768).
T1 construct: expressed in transfected cells; host or cells: Psen1/2 double KO/Aph1ABC triple KO MEFs
Description: Aβ40 secretion, MEF cell pool restored with PSEN1 WT–APH1A. Conditions: decimal comma; for IC50 fold change to WT: PSEN1 WT–APH1A cell pool (reference); for IC50: PSEN1 WT–APH1A cell pool, N = 3 to 4, mean (95% CI). It is filed as cell-based. As to the method: (§2) We turned to experimental site–directed mutagenesis and selected a series of amino acids (Fig. 3) in the entrance channel for mutation to alanine. […] More importantly, they were all enzymatically active as shown by the secretion of Aβ40 in the supernatants of the cell cultures (Fig. 3B).
(§3) Conditional Psen1/2 double KO mice were crossed with conditional Aph1ABC triple KO mice ([29], [52], [58], [59]). At embryonic day 7.5, embryos were dissected and dissociated, and cells were plated in the presence of Dulbecco’s modified Eagle’s medium (DMEM)/F12 50% fetal calf serum (FCS) (Invitrogen). Primary MEFs were immortalized by transduction with LargeT antigen. Psen1/2 double KO/Aph1ABC triple KO MEFs were generated by transduction with a Cre-GFP–expressing adenoviral vector, and GFP-positive MEFs were sorted by fluorescence-activated cell sorting analysis. Psen1/2 Aph1ABC-deficient MEFs were maintained in DMEM/f12 10% FCS. To rescue γ-secretase expression, Psen1/2 double KO/Aph1ABC triple KO MEFs were transduced using Murine Stem Cell Virus retroviral vector system (pMSCV) viral vectors (Clontech) containing the human coding sequences of the different PSEN and APH1 homologs and the zeocin selection marker. An Internal Ribosome Entry Site sequence was cloned between the coding sequences for PSEN and APH1 to ensure co-expression of both proteins. Stable transfected cell lines were selected using 500-μg/ml zeocin (Invitrogen). Four different combinations were made: PSEN1 and APH1AL, PSEN1 and APH1B, PSEN2 and APH1AL, and PSEN2 and APH1B. These cell lines were transduced with pMSCV viral vectors (Clontech) expressing APP-C99-GFP-puromycin. After puromycin selection (5 μg/ml), GFP-positive cells were selected through FACS sorting. For the alanine mutagenesis experiment, pMSCV PSEN1-APH1A viral vectors were generated by using a long PCR-based QuikChange strategy (Stratagene). Stable cell lines without clonal selection were generated for each mutant as described above. All cell lines were regularly tested for the absence of mycoplasma and used for maximum 20 passages in culture.
as §1, with “indicated. We however measured five compounds at the Leuven site and noticed that absolute IC50 values were different (Fig. S2). The main goal of the current work is to explore the basis for inhibitor selectivity for different γ-secretases, and selectivity was consistent in the assays at the two sites (Fig. S2).” for “indicated.”
Standard 96-well SECTOR plates (MSD) were coated with 1.5 μg/ml anti-Aβ JRFcAβ40/28 capture antibody in a final volume of 50 μl of PBS 0.05% Tween 20. After overnight incubation at 4 °C, the plates were five times rinsed with PBS 0.05% Tween 20 and blocked with 150 μl per well of casein buffer (PBS with 1% casein, pH 7.4) for 4 h at room temperature. Standards (synthetic human Aβ 1–40) were diluted in culture media. […]

Experiment [3] concerns the target T2, PSEN1 L150A–APH1A γ-secretase complex (Homo sapiens, UniProt P49768, L150A).
T2 construct: expressed in transfected cells; host or cells: Psen1/2 double KO/Aph1ABC triple KO MEFs, pools without clonal selection
Kind of experiment: Aβ40 secretion, MEF cell pool restored with PSEN1 L150A–APH1A. It is filed as cell-based. Conditions: decimal comma; for IC50: PSEN1 L150A (TM2)–APH1A cell pool, N = 3 to 4, mean (95% CI). As to the method:
as §2
as §3, with “After puromycin selection (5 μg/ml), GFP-positive cells were selected through FACS sorting. For the alanine mutagenesis experiment, pMSCV PSEN1-APH1A viral vectors were generated by using a long PCR-based QuikChange strategy (Stratagene). Stable cell lines without clonal selection were generated for each mutant as described above. All cell lines were regularly tested for the absence of mycoplasma and used for maximum 20 passages in culture.” left out
(§4) The number of plated cells and incubation times were determined in respect to linearity of Aβ peptide secretion, the dynamic range of Aβ peptide quantification in the medium, and sensitivity to dimethylsulfoxide (DMSO). […] The cell viability was assessed using the CellTiter-Glo Luminescent assay (Promega) that measures ATP production. […] We however measured five compounds at the Leuven site and noticed that absolute IC50 values were different (Fig. S2). […]

Experiment [4] deals with T3, PSEN1 L173A–APH1A γ-secretase complex (Homo sapiens, UniProt P49768, L173A).
T3 construct: expressed in transfected cells; host or cells: Psen1/2 double KO/Aph1ABC triple KO MEFs, pools without clonal selection
Description: Aβ40 secretion, MEF cell pool restored with PSEN1 L173A–APH1A. It is filed as cell-based. Conditions: decimal comma; for IC50: PSEN1 L173A (TM3)–APH1A cell pool, N = 3 to 4, mean (95% CI). As to the method:
as §2
as §3, with “After puromycin selection (5 μg/ml), GFP-positive cells were selected through FACS sorting. For the alanine mutagenesis experiment, pMSCV PSEN1-APH1A viral vectors were generated by using a long PCR-based QuikChange strategy (Stratagene). Stable cell lines without clonal selection were generated for each mutant as described above. All cell lines were regularly tested for the absence of mycoplasma and used for maximum 20 passages in culture.” left out
as §4

With `O=S(=O)(c1ccc(Cl)cc1)N1[C@H]2CC[C@@H]([C@H]1c1ccc(C(F)(F)F)cc1)[C@@H](O)C2` [(+)-9b], in experiment [1] (IC50 ratios of PSEN1 versus PSEN2, MEF cell lines), the “selectivity for PSEN1 complexes versus PSEN2 complexes” value is greater than 250 fold. Besides, the “selectivity PSEN1–APH1B versus PSEN1–APH1A” value in experiment [1] (MEF cell lines) worked out at 4 fold. In addition, the “IC50 fold change to WT” value is 1 fold in experiment [2] and 2,658 fold in experiment [4] (PSEN1 L173A–APH1A cell pool). For the same molecule, the IC50 – broadly, the concentration at which inhibition is half-maximal – in experiment [2] was found to be 0.029 µM; in experiment [3], 1.09 µM; in experiment [4], 0.077 µM.

As for `C[C@H](NC(=O)Cc1cc(F)cc(F)c1)C(=O)N[C@H](C(=O)OC(C)(C)C)c1ccccc1` [DAPT], the “selectivity toward the different γ-secretase complexes” value in experiment [1] (four MEF cell lines) was less than 10 fold. The “IC50 fold change to WT” value was 1 fold in experiment [2]; 5,207 fold and > 3 fold in experiment [3] (PSEN1 L150A–APH1A cell pool). Besides, the half-maximal inhibitory concentration (IC50) in experiment [2] was determined as 0.169 µM; in experiment [3], 0.879 µM; in experiment [4], 0.028 µM.
